Measured values taken from patent publication US20130022612A1, “METHODS AND COMPOSITIONS FOR MALARIA PROPHYLAXIS” (priority 2004, published 2013).

Legend:
Format in all cases: cell-based, Plasmodium berghei
[1] = system: CSP processing in P. berghei sporozoites; test: Pulse-chase metabolic labeling of CSP processing, P. berghei sporozoites
Description: P. berghei sporozoites were incubated in Dulbecco's Modified Eagle Medium (DMEM; Invitrogen, Carlsbad, Calif.) without cysteine (Cys) and methionine (Met), containing 1% BSA and […] L-[35 S]-Cys/Met (Pro-Mix, Amersham Pharmacia) in a total volume of 200 μl for one hour at 28° C. They were then washed and resuspended in DMEM/BSA containing unlabeled Cys/Met at 28° C. for the indicated time in the presence or absence of the indicated protease inhibitor. Sporozoites were then lysed and CSP was immunoprecipitated and analyzed by autoradiography as outlined below.
When sporozoites were incubated with specific inhibitors, their concentrations were as follows: 10 […] E-64; 1 mM phenylmethylsulfonyl fluoride (PMSF); 0.3 mM aprotinin; 100 mM 3,4 DCl; 75 mM leupeptin; 100 mM TLCK; 1 mM pepstatin; 1 mM 1,10 phenanthroline; 5 mM EDTA; 0.5% sodium azide. To check for toxicity by propidium iodide (PI) staining, P. berghei sporozoites were incubated in the presence or absence of the various protease inhibitors for two hours at 28° C., PI was then added to a final concentration of […] for five minutes at 28° C. The sporozoites were washed and viewed under a fluorescent microscope.
Metabolically-labeled sporozoites were lysed in lysis buffer (1% Triton X-100, 50 mM Tris-HCl pH 8.0) with 150 mM NaCl containing a protease inhibitor cocktail (Complete Mini-Tablets, Roche) for one hour at 4° C. The lysates were incubated with mAb 3D11 conjugated to agarose overnight at 4° C. with agitation, and the beads were then washed sequentially with lysis buffer containing 150 mM NaCl, high salt buffer (500 mM NaCl in lysis buffer), lysis buffer without added NaCl, and pre-elution buffer (0.5% Triton X-100, 10 mM Tris-HCl pH 6.8). CSP was eluted with 1% SDS in 0.1 M glycine pH 1.8, neutralized with 1.5 M Tris-HCl pH 8.8, and run on a 7.5% SDS-polyacrylamide gel under nonreducing conditions.
P. berghei sporozoites were metabolically labeled as previously described (Bruna-Romero, O., et al.). Briefly, sporozoites were labeled in Dulbecco's Modified Eagle Medium containing 1% BSA (DMEM/BSA) without Cys/Met and with 400 μCi/ml L-[^35S]Cys/Met for one hour at 28° C. and chased in DMEM/BSA with Cys/Met at 28° C. in the presence of 10 μM E-64 or the indicated concentrations of allicin. Labeled sporozoites were lysed in 1% Triton X-100/150 mM NaCl/50 mM Tris-HCl pH 8.0 with protease inhibitors, and lysates were incubated with 3D11-sepharose overnight at 4° C. CSP was eluted with 1% SDS in 0.1 M glycine pH 1.8, neutralized with Tris-HCl pH 8.8, and run on a 7.5% SDS-polyacrylamide gel under nonreducing conditions. The gel was fixed, enhanced with Amplify (Amersham Pharmacia), dried and exposed to film.
P. berghei sporozoites were metabolically labeled in DMEM without Cys/Met, 1% BSA and 400 μCi/ml L-[^355]-Cys/Met for 1 hour at 28° C. and then kept on ice or chased at 28° C. for the indicated times. Details of this procedure are outlined in (Coppi et al., 2005). To investigate the kinetics of processing in the presence of hepatocytes, sporozoites were labeled as above, chased at 28° C. for 1 hour and then centrifuged (300×g) onto glass coverslips with Hepa 1-6 cells and incubated at 37° C. for 5, 15 or 30 minutes. To investigate the effect of antibodies on CSP cleavage, sporozoites were labeled as above and then chased for 2 hours in the presence of the indicated antibody. Monoclonal antibodies were used as purified antibodies at the indicated concentrations and the IgG fraction of the NH2-terminal antiserum was used after isolation by Protein A (Vivapure maxiprepA; Sartorius, Edgewood, N.Y.). In all cases, labeled sporozoites (with or without Hepa 1-6 cells) were lysed and labeled CSP was immunoprecipitated with mAb-3D11 conjugated to sepharose or in the case of P. falciparum CSP, with mAb-2A10 conjugated to sepharose, as previously described (Coppi et al., 2005). CSP was eluted from the beads, run on an SDS-PAGE gel which was enhanced, dried and exposed to film. […]

P. berghei sporozoites [2] = system: P. berghei sporozoites
Description: %invasion=total sporozites−extracellular sporozites×100/total sporozites
Invasion assays were performed as previously described (Pinzon-Ortiz, C., et al.) with some modifications. […] Cells were then washed, fixed, and sporozoites were stained with a double staining assay that distinguishes between intracellular and extracellular sporozoites (Renia, L., et al.). […]

P. berghei sporozoites [3] = test: Sporozoite gliding motility assay, P. berghei
Description: Glass 8-chambered Lab-tek wells (Nalgene) were coated with 10 μg/ml 3D11 in PBS overnight at 25° C. and then washed three times with PBS. 2×10^4 P. berghei sporozoites were incubated with 50 μM allicin in DMEM without Cys/Met for ten minutes at 28° C., the medium removed and replaced with DMEM/3% BSA containing 50 μM or 4.2 μM allicin before sporozoites were added to the coated Lab-Tek wells. The sporozoites were incubated for one hour at 37° C., the medium was removed, and the wells were fixed with 4% paraformaldehyde, washed, blocked with PBS/1% BSA, and incubated with biotinylated 3D11 followed by Streptavidin-FITC (1:100 dilution; Amersham Pharmacia). All incubations were performed at 37° C. for one hour. Controls included untreated sporozoites and sporozoites added to wells in the presence of 1 μM cytochalasin D. For each group, gliding motility was assessed by determining the percentage of sporozoites associated with trails, and for those sporozoites with trails, counting the number of circles in each trail.

[4] = 50 μM allicin ten minutes, then diluted to 4.2 μM

| Compound | effect on CSP processing ([1]; two hour chase at 28° C., 10 mM E-64, 1 mM PMSF, 0.3 mM aprotinin, 100 mM 3,4 DCl, 75 mM leupeptin, 100 mM TLCK, 1 mM pepstatin, 1 mM 1,10 phenanthroline, 5 mM EDTA) | effect on sporozoite invasion, target cells pretreated (P. berghei sporozoites [2]; Hepa 1-6 cells pretreated with E-64, untreated sporozoites) | number of extracellular (attached) sporozoites (P. berghei sporozoites [2]; in the presence of E-64) | inhibition of invasion (P. berghei sporozoites [2]; sporozoites preincubated two hours with 10 mM E-64, Hepa 1-6 cells, one hour) [%] | intracellular sporozoites in the presence of inhibitor (P. berghei sporozoites [2]; wild type and RCon sporozoites, Hepa 1-6, 1 hr) | average number of circles per gliding sporozoite (P. berghei sporozoites [3]; E-64 treated versus untreated sporozoites) | percentage of sporozoites that exhibited gliding motility (P. berghei sporozoites [3]; P. berghei, preincubated with 10 mM E-64) | CSP cleavage ([1]; 50 μM allicin for 10 minutes, then diluted to 4.2 μM for the remainder of the chase) | CSP cleavage ([1]; 10, 25, and 50 μM allicin, two hour chase) | degree of inhibition of CSP cleavage relative to E-64 ([1]; allicin versus 10 μM E-64) | sporozoite invasion of cells (P. berghei sporozoites [2]; 10, 25, and 50 μM allicin pretreatment) | effect on invasion, host cells pretreated (P. berghei sporozoites [2]; Hepa 1-6 cells preincubated with 50 μM allicin one hour, untreated sporozoites) | gliding motility (P. berghei sporozoites [3]; [4]) | percentage gliding and number of circles per trail versus controls (P. berghei sporozoites [3]; [4]) | gliding motility (P. berghei sporozoites [3]; kept in 50 μM allicin for the duration of the assay) |
| --- | --- | --- | --- | --- | --- | --- | --- | --- | --- | --- | --- | --- | --- | --- | --- |
| CC(C)C[C@H](NC(=O)[C@H]1O[C@@H]1C(=O)O)C(=O)NCCCCN=C(N)N (relative stereo) [E-64, L-trans-epoxysuccinyl-leucylamide-[4-guanido]-butane] | inhibited CSP processing | no inhibitory effect on sporozoite invasion | always enhanced | 90 | few intracellular wild type and RCon sporozoites | not different | no effect |  |  |  |  |  |  |  |  |
| C=CCS[S+]([O-])CC=C (stereo not drawn) [allicin] |  |  |  |  |  |  |  | prevented CSP cleavage to the same extent as when 50 μM allicin was present during the entire chase | inhibited | comparable to that observed with E-64 | inhibited sporozoite invasion of cells in a dose dependent manner | no effect on invasion | no effect on gliding motility | the same | completely inhibited |
